Each structure is given as a SMILES string.

Common to all, as to format: functional
In assay [1] the test system is Mus musculus. As to the kind of experiment: Decrease in blood glucose level in Kunming mouse at 25 nmol/kg, ip administered 90 mins before 18 mmol/kg, ip glucose injection after 30 mins.
Assay [2] concerns Mus musculus. As to the kind of experiment: Decrease in blood glucose level in Kunming mouse at 25 nmol/kg, ip administered 90 mins before 18 mmol/kg, ip glucose injection after 45 mins.
For assay [3], the system named is Mus musculus. As to the kind of experiment: Decrease in blood glucose level in Kunming mouse at 25 nmol/kg, ip administered 90 mins before 18 mmol/kg, ip glucose injection after 60 mins.
Assay [4] concerns Mus musculus. As to the kind of experiment: Decrease in blood glucose level in Kunming mouse at 25 nmol/kg, ip administered simultaneously with glucose at 18 mmol/kg, ip after 15 mins.
For assay [5], the system named is Mus musculus. As to the kind of experiment: Decrease in blood glucose level in Kunming mouse at 25 nmol/kg, ip administered simultaneously with glucose at 18 mmol/kg, ip after 30 mins.
For assay [6], the system named is Mus musculus. As to the kind of experiment: Decrease in blood glucose level in Kunming mouse at 25 nmol/kg, ip administered simultaneously with glucose at 18 mmol/kg, ip after 45 mins.
Assay [7] concerns Mus musculus. Description: Decrease in blood glucose level in Kunming mouse at 25 nmol/kg, ip administered simultaneously with glucose at 18 mmol/kg, ip after 60 mins.
Assay [8] concerns Mus musculus. As to the kind of experiment: Decrease in blood glucose level in Kunming mouse at 25 nmol/kg, ip administered 90 mins before 18 mmol/kg, ip glucose injection after 15 mins.

As to `CC[C@H](C)[C@H](NC(=O)[C@H](Cc1ccccc1)NC(=O)[C@H](CCC(=O)O)NC(=O)[C@H](CCCCN)NC(=O)[C@H](C)NC(=O)[C@H](C)NC(=O)[C@H](CCC(N)=O)NC(=O)CNC(=O)[C@H](CCC(=O)O)NC(=O)[C@H](CC(C)C)NC(=O)[C@H](Cc1ccc(O)cc1)NC(=O)[C@H](CO)NC(=O)[C@H](CO)NC(=O)[C@@H](NC(=O)[C@H](CC(=O)O)NC(=O)[C@H](CO)NC(=O)[C@@H](NC(=O)[C@H](Cc1ccccc1)NC(=O)[C@@H](NC(=O)CNC(=O)[C@H](CCC(=O)O)NC(=O)CNC(=O)[C@@H](N)Cc1cnc[nH]1)[C@@H](C)O)[C@@H](C)O)C(C)C)C(=O)N[C@@H](C)C(=O)N[C@@H](Cc1c[nH]c2ccccc12)C(=O)N[C@@H](CC(C)C)C(=O)N[C@H](C(=O)N[C@@H](CCCCN)C(=O)NCC(=O)N[C@@H](CCCNC(=N)N)C(N)=O)C(C)C`, the Activity in the assay on Mus musculus [1] was found to be 14.67 mmol/L; in the assay with Mus musculus [2] it was 10.23 mmol/L; in the assay with Mus musculus [3], 9.18 mmol/L; in the assay on Mus musculus [4] it was 12.98 mmol/L; in the assay with Mus musculus [5] it was 8.27 mmol/L; with Mus musculus [6] it was 7.7 mmol/L. Further, the figures for the Activity in the assay with Mus musculus [7] and with Mus musculus [8] were 7.18 mmol/L and 17.92 mmol/L, respectively.

Values taken from ChEMBL document CHEMBL1156538, “Microwave-assisted solid phase synthesis, PEGylation, and biological activity studies of glucagon-like peptide-1(7-36) amide” (2008).
